Data: patent US7293941B2, “Methods for cementing using compositions containing salts” (Halliburton Energy Services, Inc., priority 2005, dated 2007)

What was measured:
skeletonema costatum = assay: Toxicity to algae, ISO 10253 (OSPAR HOCNF); format: in vivo; settings: amount required to kill or incapacitate half the test population per amount of water
From the text: (§1) According to still other embodiments described herein, a disulfonate salt of 2,4-pentanedione is provided. According to one such embodiment, the salt comprises 2,4-pentanedione-1,5-sodium disulfonate. According to another such embodiment, a disulfonate salt of 2,4-pentanedione has an environmentally acceptable toxicity. As used herein, the term “environmentally acceptable toxicity” means that, when tested according to procedures that are the same as or equivalent to those set forth by the OSPAR Guidelines for Completing the Harmonised Offshore Chemical Notification Format (HOCNF) (References number: 2003-1) that were in effect on Dec. 31, 2004, the salt is determined to have a toxicity of greater than about 10,000 mg/L for an algae (skeletonema costatum), a crustacean (acartia tonsa), a fish (scopthalmus) and a sediment reworker (corophium volutator). […]
(§2) In this Example 3, the toxicity results for the skeletonema costatum were determined according to ISO (International Organization for Standardization) 10253, the protocol for which is known to those of ordinary skill in the art, and is also the protocol required under the above-referenced HOCNF Guidelines. The toxicity results for the acartia tonsa were determined according to ISO 14669, the protocol for which is known to those of ordinary skill in the art. […]

[1] = Environmentally / nationally acceptable toxicity assessment; settings: concluded from result > about 10,000 mg/L for the species tested
From the text: According to still other embodiments described herein, a disulfonate salt of 2,4-pentanedione is provided. According to one such embodiment, the salt comprises 2,4-pentanedione-1,5-sodium disulfonate. According to another such embodiment, a disulfonate salt of 2,4-pentanedione has an environmentally acceptable toxicity. As used herein, the term “environmentally acceptable toxicity” means that, when tested according to procedures that are the same as or equivalent to those set forth by the OSPAR Guidelines for Completing the Harmonised Offshore Chemical Notification Format (HOCNF) (References number: 2003-1) that were in effect on Dec. 31, 2004, the salt is determined to have a toxicity of greater than about 10,000 mg/L for an algae (skeletonema costatum), a crustacean (acartia tonsa), a fish (scopthalmus) and a sediment reworker (corophium volutator).
According to yet another embodiment, a disulfonate salt of 2,4-pentanedione has a “nationally acceptable toxicity.” As used herein, the term “nationally acceptable toxicity” means that when tested according to procedures that are the same as or equivalent to those in effect in a country of interest on Dec. 31, 2004, the salt is determined to have a toxicity acceptable for use in the areas subject to such country's procedures. […]

corophium volutator = assay: Toxicity to sediment reworker, OSPAR Protocols Part B; format: in vivo; settings: amount required to kill or incapacitate half the test population per amount of water
From the text: as §1, §2

scopthalmus = assay: Toxicity to fish, OSPAR Protocols Part B; format: in vivo; settings: amount required to kill or incapacitate half the test population per amount of water
From the text: as §1, §2

acartia tonsa = assay: Toxicity to crustacean, ISO 14669; format: in vivo; settings: amount required to kill or incapacitate half the test population per amount of water
From the text: as §1, §2

[2] = Solubility of salt versus free acid on methanol rinse; format: physicochemical; settings: compared to 2,4-pentanedione-1,5-disulfonic free acid
From the text: The neutralized product was then rinsed several times with methanol to remove by-product acids, or any salts formed therefrom, while leaving the 2,4-pentanedione-1,5-sodium disulfonate primarily undissolved. […] The rinsed product was dried in a vacuum oven and filtered through a 300 mesh screen to afford a flowing pale orange/red powder. The resulting powder was 2,4-pentanedione-1,5-sodium disulfonate.

With `O=C(CC(=O)CS(=O)(=O)[O-])CS(=O)(=O)[O-].[Na+].[Na+]` [2,4-pentanedione-1,5-sodium disulfonate] the toxicity (skeletonema costatum) was “greater than 10,000 mg/L”, the toxicity acceptability [1] was “low toxicity” and the toxicity (corophium volutator) was “greater than 10,000 mg/L”. The toxicity (scopthalmus) was “greater than 10,000 mg/L”, the toxicity (acartia tonsa) was “greater than 10,000 mg/L” and the “solubility compared to the free acid” value [2] was “significantly less soluble”.
